According to the supplement of paper PMC10307832:

How the values were obtained:
Assay in all cases: relative viability (nuclei count vs DMSO), 5 days (fraction); higher = more cells survive
[1] = compound: COCC[n+]1c2c(n(Cc3cnccn3)c1C)C(=O)c1ccccc1C2=O [YM155] + Nc1nc2[nH]cc(CCc3ccc(C(=O)N[C@@H](CCC(=O)O)C(=O)O)cc3)c2c(=O)[nH]1 [Pemetrexed] (partner 0.2 µM)
Method in brief: (§1)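 Each reported value is a median over duplicate plates. It expresses relative viability: treated-well nuclei count divided by vehicle-well nuclei count. Lung cancer cell lines in 1536-well plates were dosed by pin tool a day after seeding, alone with one drug or with a fixed anchor-drug dose plus five library-drug doses (not always all listed) in √10 steps, and nuclei were counted after 5 days.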

[2] = compound: CC(C)(C)c1cc(NC(=O)Nc2ccc(-c3cn4c(n3)sc3cc(OCCN5CCOCC5)ccc34)cc2)no1 [Quizartinib] + COc1cccc2cc(-c3nc([C@H]4CC[C@H](C(=O)O)CC4)n4ncnc(N)c34)[nH]c12 [OSI-027] (partner 0.5 µM)
Method in brief: as §1

[3] = compound: COCC[n+]1c2c(n(Cc3cnccn3)c1C)C(=O)c1ccccc1C2=O [YM155]
Method in brief: (§2)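 Viability was defined as treated-well nuclei divided by vehicle-well nuclei, with the median taken over replicate plates. Cells from lung cancer lines sat overnight at 37 °C in 1536-well plates, received five √10-spaced library-drug doses by pinning on vehicle-anchored plates, and grew 5 days without medium change before one-step fixation, permeabilisation and Hoechst staining, 4× imaging and MetaXpress nuclear counts. Only plates with control CV under 25% and at least one doubling were kept.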

[4] = compound: CC(C)(C)c1cc(NC(=O)Nc2ccc(-c3cn4c(n3)sc3cc(OCCN5CCOCC5)ccc34)cc2)no1 [Quizartinib]
Method in brief: as §2

Cell Line	relative viability ([1]; first compound 0.002 µM)	relative viability ([1]; first compound 0.006325 µM)	relative viability ([1]; first compound 0.02 µM)	relative viability ([1]; first compound 0.06325 µM)	relative viability ([2]; first compound 0.001 µM)	relative viability ([2]; first compound 0.003162 µM)	relative viability ([2]; first compound 0.01 µM)	relative viability ([2]; first compound 0.1 µM)	relative viability ([3]; 0.002 µM)	relative viability ([3]; 0.006325 µM)	relative viability ([3]; 0.02 µM)	relative viability ([3]; 0.06325 µM)	relative viability ([4]; 0.001 µM)	relative viability ([4]; 0.003162 µM)	relative viability ([4]; 0.01 µM)	relative viability ([4]; 0.03162 µM)	relative viability ([4]; 0.1 µM)	relative viability ([2]; first compound 0.03162 µM)
SK-MES-1	0.937	1.03	0.955	0.291	0.538	0.582	0.658	0.622	0.956	1.02	0.942	0.692	0.944	0.96	1.09	0.732	0.924	
NCI-H1975	0.26	0.258	0.302	0.167	0.682	0.624	0.722	0.572	0.826	0.883	0.921	0.679	0.853	0.891	0.966	1.03	1.01	0.673
HCC-78	0.896	0.954	0.935	0.913	0.398	0.375	0.357	0.377	0.898	1.08	1.08	1.05	0.967	1.03	0.911	0.865	0.988	0.325
H3255	0.587	0.627	0.565	0.566	0.502	0.589	0.628	0.433	0.953	0.998	1.01	0.929	0.822	0.964	0.969	1.03	1.01	0.62
NCI-H1299									0.984	0.977	1.01	1	0.949	1.01	1.02	1.03	1.03	
NCI-H441	0.249	0.267	0.293	0.198	0.424	0.669	0.564	0.693	0.9	1.15	0.795	0.759	0.919	0.946	0.945	0.764	1.14	
NCI-H1755	0.647	0.42	0.359	0.434	0.591	0.645	0.79	0.701	0.973	0.996	0.968	1.03	0.866	0.958	0.996	1.07	0.99	0.793
LCLC-97TM1		0.193	0.181	0.18	0.567	0.466	0.538	0.563	0.791	0.955	1.04	0.957	0.771	0.968	0.918	0.964	1	0.588
NCI-H2085	0.705	0.884	0.911	0.869	0.784	0.648	0.662	0.525	0.954	0.986	0.922	0.636	0.95	0.939	1.02	0.943	0.976	0.778
BEN	0.63	0.839	0.934	0.908	0.259	0.326	0.325	0.284	0.899	0.972	1.09	1.11	0.906	0.982	0.94	0.813	0.972	0.282
NCI-H2126	0.696	0.691	0.67	0.753	0.66	0.753	0.671	0.693	0.972	1.03	0.991	1.05	0.981	1.01	1.01	1.05	1.08	0.621
EMC-BAC-2	0.456	0.486	0.463	0.424	0.348	0.397	0.364	0.413	0.883	0.971	1.09	0.808	0.919	0.976	0.927		1.05	
NCI-H1793	0.708	0.896	1.03	0.954	0.27	0.298	0.232	0.232	0.706	0.936	0.908	0.869	0.838	1.01	0.839	0.853	0.925	0.309
NCI-H650	0.834	0.744	0.966	1.08	0.527	0.505	0.428	0.61	0.953	0.88	1.01	0.909	0.849	0.863	0.851	0.833	0.967	0.548
NCI-H1437	0.297	0.305	0.33	0.234	0.789	0.868	0.853	0.747	0.89	0.96	0.983	0.826	0.942	0.963	0.973	0.822	0.849	0.956
COR-L 105	1.01	1.04	1	0.602	0.656	0.69	0.649	0.678	0.914	0.804	0.912	0.692	0.864	0.961	0.906	0.87	1.05	0.619
CAL-12T	1.23	1.22	1.11	0.569	0.658	0.683	0.862	0.846	0.928	0.998	1.08	0.719	0.92	1.06	1.05	0.821	1.11	0.503
IA-LM									0.864	0.969	1.04	0.764	0.889	0.992	1.11	0.924	0.933	
ChaGo-K-1	0.261	0.243	0.26	0.254	0.574	0.613	0.61	0.584	0.906	1	0.987	0.918	0.773	1.05	1.01	0.851	1.05	0.514
